In ChEMBL document CHEMBL1201862, “PubChem BioAssay data set” (2004):
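Each compound was tested at five concentrations against cells in 96-well plates for 48 hours. Here, GI50 denotes the concentration required for 50% inhibition of growth.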 Activity calls are given as the source filed them. Rule as the data show it: active = GI50 up to about 1.1 µM and inactive = higher.

Columns and labels:
Assay in all cases: NCI anticancer screen, dose series, 48 h
[1] = tested on: HOP-62
[2] = tested on: SF-295
[3] = tested on: HCT-15
[4] = tested on: MOLT-4
[5] = tested on: SNB-75
[6] = tested on: Malme-3M
[7] = tested on: SNB-19
[8] = tested on: U-251
[9] = tested on: NCI-H522
[10] = tested on: K562
[11] = tested on: OVCAR-8
[12] = tested on: NCI-H226
[13] = tested on: RXF 393
[14] = tested on: SR
[15] = tested on: RPMI-8226
[16] = tested on: SK-MEL-5
[17] = tested on: Hs-578T
[18] = tested on: T47D
[19] = tested on: EKVX

SMILES	GI50 [1]	GI50 [2]	GI50 [3] [µM]	GI50 [4]	GI50 [5]	GI50 [6]	GI50 [7]	GI50 [8]	GI50 [9]	GI50 [10]	GI50 [11]	GI50 [12]	GI50 [13]	GI50 [14]	GI50 [15]	GI50 [16]	GI50 [17]	GI50 [18]	GI50 [19]
CC(C)(C)OC(=O)NCC(=O)OCc1ccccc1	> 100 µM (inactive)	> 100 µM (inactive)	> 100	> 100 µM (inactive)	> 100 µM (inactive)	> 100 µM (inactive)	> 100 µM (inactive)	> 100 µM (inactive)	> 10 µM (inactive)	> 100 µM (inactive)	> 100 µM (inactive)	–	–	–	–	–	–	–	–
c1nc2cscc2c2cscc12	> 100 µM (inactive)	> 100 µM (inactive)	> 100	> 100 µM (inactive)	–	> 100 µM (inactive)	> 100 µM (inactive)	> 100 µM (inactive)	> 100 µM (inactive)	> 100 µM (inactive)	> 100 µM (inactive)	29.2 µM (inactive)	> 100 µM (inactive)	> 100 µM (inactive)	> 100 µM (inactive)	–	–	–	–
CCCOC(=O)c1cc(C(=CCC[C@H]2CC[C@@]3(C)[C@@H](CC[C@@H]4[C@@H]3CC[C@]3(C)[C@@H](C(C)CCCC(C)C)CC[C@@H]43)C2)c2cc(Cl)c(O)c(C(=O)OCCC)c2)cc(Cl)c1O (stereo partly specified)	> 50 µM (inactive)	–	> 50	> 50 µM (inactive)	> 50 µM (inactive)	–	> 50 µM (inactive)	> 50 µM (inactive)	–	> 5 µM (inactive)	> 50 µM (inactive)	> 50 µM (inactive)	–	–	> 50 µM (inactive)	> 50 µM (inactive)	> 50 µM (inactive)	> 50 µM (inactive)	> 50 µM (inactive)
CCOC(=O)c1oc2c(OC)cc(Cl)c3c2c1CCC3	–	58.1 µM (inactive)	> 100	> 100 µM (inactive)	26.2 µM (inactive)	> 100 µM (inactive)	31.5 µM (inactive)	45 µM (inactive)	29.2 µM (inactive)	> 100 µM (inactive)	35.4 µM (inactive)	12.2 µM (inactive)	24.2 µM (inactive)	> 100 µM (inactive)	> 100 µM (inactive)	> 100 µM (inactive)	–	–	> 100 µM (inactive)
COc1ccc(-c2nc3ncccn3c2-c2ccc(S(C)(=O)=O)cc2)cc1	> 100 µM (inactive)	> 100 µM (inactive)	> 100	> 100 µM (inactive)	> 100 µM (inactive)	–	> 100 µM (inactive)	> 100 µM (inactive)	–	> 100 µM (inactive)	> 100 µM (inactive)	–	–	47.6 µM (inactive)	41.7 µM (inactive)	48.2 µM (inactive)	> 100 µM (inactive)	–	–
CCOC(=O)NC(OC)(C(F)(F)F)C(F)(F)F	> 100 µM (inactive)	> 100 µM (inactive)	> 100	> 100 µM (inactive)	> 100 µM (inactive)	> 100 µM (inactive)	> 100 µM (inactive)	> 100 µM (inactive)	> 100 µM (inactive)	> 100 µM (inactive)	> 100 µM (inactive)	> 100 µM (inactive)	> 100 µM (inactive)	> 100 µM (inactive)	> 100 µM (inactive)	> 100 µM (inactive)	> 100 µM (inactive)	–	> 100 µM (inactive)
COc1cc(OC)c2nc(C)c3c(c2c1)NCC3	7.74 µM (inactive)	11.2 µM (inactive)	12.1	–	12.4 µM (inactive)	10.4 µM (inactive)	12.6 µM (inactive)	9.35 µM (inactive)	7.73 µM (inactive)	0.776 µM (active)	4.51 µM (inactive)	3.47 µM (inactive)	4.48 µM (inactive)	2.89 µM (inactive)	–	10 µM (inactive)	2.56 µM (inactive)	–	–
NNC(=O)c1nn[nH]c1SSc1[nH]nnc1C(=O)NN	> 100 µM (inactive)	> 100 µM (inactive)	> 100	> 100 µM (inactive)	> 100 µM (inactive)	–	> 100 µM (inactive)	> 100 µM (inactive)	> 100 µM (inactive)	–	> 100 µM (inactive)	> 100 µM (inactive)	> 100 µM (inactive)	–	–	> 100 µM (inactive)	> 100 µM (inactive)	–	> 100 µM (inactive)
CC1(c2cccc3ccccc23)OC(=O)c2ccccc21 (stereo unspecified)	18.3 µM (inactive)	17.9 µM (inactive)	18.6	15.1 µM (inactive)	10 µM (inactive)	20.7 µM (inactive)	30.1 µM (inactive)	20 µM (inactive)	25.2 µM (inactive)	12.8 µM (inactive)	28.1 µM (inactive)	22.7 µM (inactive)	18.5 µM (inactive)	–	19.6 µM (inactive)	13.3 µM (inactive)	–	–	30.1 µM (inactive)
